# Tests used:
# Experiment in all cases: Cell panel screen (CellTiter-Glo)
# Format in all cases: cell-based, human
# [1] = test system: BT-474; details: BT-474 (Breast), 20 micromolar, 72 hrs
# How it was run: (§1)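 Here, cancer cells cultured in medium with 10% FBS are treated for 72 h with each compound at 20 μM final. Viability is measured by ATP-dependent luminescence, and growth inhibition is calculated as a percentage against vehicle-only wells minus cell-free background.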
# [2] = test system: ChaGo-K-1; details: ChaGo-K-1 (Lung), 20 micromolar, 72 hrs
# How it was run: as §1
# [3] = test system: HEC-1-A; details: HEC-1-A (Uterus), 20 micromolar, 72 hrs
# How it was run: as §1
# [4] = test system: HGC-27; details: HGC-27 (Stomach), 20 micromolar, 72 hrs
# How it was run: as §1
# [5] = test system: C8166; details: C8166 (Leukemia), 20 micromolar, 72 hrs
# How it was run: as §1
# [6] = test system: Bel-7402; details: Bel-7402 (Liver), 20 micromolar, 72 hrs
# How it was run: as §1
# [7] = test system: A498; details: A498 (listed under Lung), 20 micromolar, 72 hrs
# How it was run: as §1
# [8] = test system: NCI-H1770; details: NCI-H1770 (Lung), 20 micromolar, 72 hrs
# How it was run: as §1
# [9] = test system: M059J; details: M059J (Brain), 20 micromolar, 72 hrs
# How it was run: as §1
# [10] = test system: HCC1599; details: HCC1599 (Breast), 20 micromolar, 72 hrs
# How it was run: as §1
# [11] = test system: C3A; details: C3A (Liver), 20 micromolar, 72 hrs
# How it was run: as §1
# [12] = test system: Panc 03.27; details: Panc 03.27 (Pancreas), 20 micromolar, 72 hrs
# How it was run: as §1
# [13] = test system: NCI-H28; details: NCI-H28 (Lung), 20 micromolar, 72 hrs
# How it was run: as §1
# [14] = test system: A704; details: A704 (Kidney), 20 micromolar, 72 hrs
# How it was run: as §1
# [15] = test system: HCC1569; details: HCC1569 (Breast), 20 micromolar, 72 hrs
# How it was run: as §1
# [16] = test system: TCCSUP; details: TCCSUP (Urinary bladder), 20 micromolar, 72 hrs
# How it was run: as §1
# [17] = test system: NCI-H1623; details: NCI-H1623 (Lung), 20 micromolar, 72 hrs
# How it was run: as §1
# [18] = test system: NCI-H2405; details: NCI-H2405 (Lung), 20 micromolar, 72 hrs
# How it was run: as §1
# [19] = test system: HCC1937; details: HCC1937 (Breast), 20 micromolar, 72 hrs
# How it was run: as §1
# [20] = test system: J82; details: J82 (Urinary bladder), 20 micromolar, 72 hrs
# How it was run: as §1
# [21] = test system: RL95; details: RL95 (Uterus), 20 micromolar, 72 hrs
# How it was run: as §1
# [22] = test system: T98G; details: T98G (Brain), 20 micromolar, 72 hrs
# How it was run: as §1
# [23] = test system: HCC1395; details: HCC1395 (Breast), 20 micromolar, 72 hrs
# How it was run: as §1
# [24] = test system: HPAF-II; details: HPAF-II (Pancreas), 20 micromolar, 72 hrs
# How it was run: as §1
# [25] = test system: NCI-H2347; details: NCI-H2347 (Lung), 20 micromolar, 72 hrs
# How it was run: as §1
# [26] = test system: BT-549; details: BT-549 (Breast), 20 micromolar, 72 hrs
# How it was run: as §1
# [27] = test system: NCI-H524; details: NCI-H524 (Lung), 20 micromolar, 72 hrs
# How it was run: as §1
# [28] = test system: Colo 205; details: Colo 205, 20 micromolar, 72 hrs
# How it was run: as §1
# [29] = test system: SW13; details: SW13 (Adrenal gland), 20 micromolar, 72 hrs
# How it was run: as §1
# [30] = test system: NCI-H1694; details: NCI-H1694 (Lung), 20 micromolar, 72 hrs
# How it was run: as §1
# [31] = test system: ZR-75-30; details: ZR-75-30 (Breast), 20 micromolar, 72 hrs
# How it was run: as §1
# [32] = test system: MSTO-211-H; details: MSTO-211-H (Lung), 20 micromolar, 72 hrs
# How it was run: as §1
# [33] = test system: HT-1197; details: HT-1197 (Urinary bladder), 20 micromolar, 72 hrs
# How it was run: as §1
# [34] = test system: CW-2; details: CW-2 (Colon), 20 micromolar, 72 hrs
# How it was run: as §1
# [35] = test system: CCF-STTG1; details: CCF-STTG1 (Brain), 20 micromolar, 72 hrs
# How it was run: as §1
# [36] = test system: T47D; details: T47D (Breast), 20 micromolar, 72 hrs
# How it was run: as §1
SMILES,Percent Inhibition [1],Percent Inhibition [2],Percent Inhibition [3],Percent Inhibition [4],Percent Inhibition [5],Percent Inhibition [6],Percent Inhibition [7],Percent Inhibition [8],Percent Inhibition [9],Percent Inhibition [10],Percent Inhibition [11],Percent Inhibition [12],Percent Inhibition [13],Percent Inhibition [14],Percent Inhibition [15],Percent Inhibition [16],Percent Inhibition [17],Percent Inhibition [18],Percent Inhibition [19],Percent Inhibition [20],also measured
COc1cc(O)c2c(=O)c3ccc(O)c(O)c3oc2c1CC=C(C)C [gl-17],89%,87%,76%,92%,90%,60%,75%,40%,91%,93%,89%,84%,76%,42%,74%,83%,41%,19%,83%,88%,Percent Inhibition [21]: 87%; Percent Inhibition [22]: 85%; Percent Inhibition [23]: 89%; Percent Inhibition [24]: 89%; Percent Inhibition [25]: 86%; Percent Inhibition [26]: 65%; Percent Inhibition [27]: 98%; Percent Inhibition [28]: 97%; Percent Inhibition [29]: 85%; Percent Inhibition [30]: 98%; Percent Inhibition [31]: 98%; Percent Inhibition [32]: 79%; Percent Inhibition [33]: 95%; Percent Inhibition [34]: 96%; Percent Inhibition [35]: 74%; Percent Inhibition [36]: 72%
CC1(C)C=Cc2c(cc(O)c3c(=O)c4ccc(O)c(O)c4oc23)O1 [gl-18],92%,91%,81%,92%,92%,78%,74%,89%,91%,92%,81%,96%,77%,66%,81%,85%,77%,66%,85%,88%,Percent Inhibition [21]: 94%; Percent Inhibition [22]: 91%; Percent Inhibition [23]: 94%; Percent Inhibition [24]: 82%; Percent Inhibition [25]: 84%; Percent Inhibition [26]: 86%; Percent Inhibition [27]: 96%; Percent Inhibition [28]: 96%; Percent Inhibition [29]: 96%; Percent Inhibition [30]: 98%; Percent Inhibition [31]: 95%; Percent Inhibition [32]: 85%; Percent Inhibition [33]: 90%; Percent Inhibition [34]: 95%; Percent Inhibition [35]: 81%; Percent Inhibition [36]: 83%
O=c1c2cc(O)ccc2oc2cccc(O)c12 [gl-20],50%,57%,41%,69%,76%,-3%,38%,-4%,63%,83%,58%,52%,24%,13%,57%,67%,-13%,-5%,62%,60%,Percent Inhibition [21]: 67%; Percent Inhibition [22]: 73%; Percent Inhibition [23]: 74%; Percent Inhibition [24]: 19%; Percent Inhibition [25]: 48%; Percent Inhibition [26]: 46%; Percent Inhibition [27]: 91%; Percent Inhibition [28]: 3%; Percent Inhibition [29]: 33%; Percent Inhibition [30]: 86%; Percent Inhibition [31]: 87%; Percent Inhibition [32]: 59%; Percent Inhibition [33]: 77%; Percent Inhibition [34]: 47%; Percent Inhibition [35]: 49%; Percent Inhibition [36]: 39%
